# Tests used:
# mutp53^R175H = assay: ELISA of mutp53 DNA binding (p53RE oligonucleotide), H1299-p53^R175H cell extract; format: biochemical, human; conditions: for DNA H1299: score 0-6 compared to positive control, mutp53 DNA binding; for binding of mutp53 to the p53RE: H1299-p53^R175H extract, Figure 2B
# Protocol: Cell extracts were added to ELISA plates coated with the indicated antibodies to allow mutp53 to react with the peptides and antibodies. αp53-HRP Ab was used for assessment of p53 levels. Numbers represent ratio of absorbance between the PAb1620 and PAb240 samples. All reads were normalized to the control […] reading of each extract. MCF7 (WTp53) and H1299-mutp53^A135V (tsp53) cells were used as positive controls for the WTp53 conformation (1620/240 ratio equals or exceeds 5:1). […] 96 well plates were coated with anti-p53 antibody, cell extracts containing p53 were reacted with oligonucleotides that contain a p53RE consensus binding site, labeled with biotin, in the presence or absence (NT) of test peptides. Streptavidin-HRP is used to quantify the amount of oligos in the well. TMB assay was performed to determine bound mutp53 levels (450nm). MCF7 and the H1299-mutp53^A135V(TS) cells serve as positive controls for WTp53. C.and D. - Bar graphs illustrating the effect of various selected peptides on mut-p53 dependent expression on cell viability. […] D, ES2 cells expressing endogenous mutp53 (blue bars) and ES2 cells knocked out for p53 by CRISPR construct (light blue bars). Cell lines were treated with selected peptides, Cis-platinum was used as positive control for cell death. 48 hours after treatment, cells were washed with PBS, and the remaining attached cells were stained with Crystal violet and washed 4 times with PBS. Stained cells were dissolved in 10% acetic acid and plates were taken for optical density measurement at […]. TEXT PRINTED IN THE PICTURE: (A) pCAP1: 0.87 | (A) pCAP2: 0.53 | (A) pCAP3: 0.59 | (A) pCAP4: 0.59 | (A) pCAP5: 0.60 | (A) pCAP6: 0.75 | (A) pCAP23: 1.06 | (A) pCAP24: 1.44 | (A) pCAP36: 1.25 | (A) pCAP47: 1.54 | (A) pCAP54: 1.54 | (A) pCAP60: 2.73 | (A) pCAP68: 2.22 | (A) pCAP83: 1.56 | (A) pCAP97: 2.45 DOUBTS OF THE COPYIST ABOUT THIS PICTURE: Panel A: the numbers over the bars are printed very small, rotated and blurred, so 3, 5, 6, 8 and 9 cannot be told apart with certainty. All values are best readings: pCAP1 0.87, pCAP2 0.53, pCAP3 0.59, pCAP4 0.59, pCAP5 0.60, pCAP6 0.75, pCAP23 1.06, pCAP24 1.44, pCAP36 1.25, pCAP47 1.54, pCAP54 1.54, pCAP60 2.73, pCAP68 2.22, pCAP83 1.56, pCAP97 2.45 / Panel A: the picture prints no measure with the numbers over the bars, so they are given as bare numbers / Panel A: numbers are also printed over the controls, which are not substances and are left out of lines. Best readings: NT 0.60, 60° 30'' 0.48, 60° 1' 0.37, 60° 3' 0.13, 60° 10' 0.05, MCF7 3.32, H1299TS 3.25
# (§1) Next, we assessed the ability of our selected peptides to restore sequence-specific DNA binding to mutp53. To that end we employed an ELISA kit (R&D) in which cell extracts containing p53 are reacted with a biotinylated p53RE oligonucleotide and then incubated in wells coated with anti-p53 antibody, which is expected to trap the p53 protein and its associated p53RE DNA. The amount of p53RE retained in each well via p53 binding is quantified by incubation with streptavidin-HRP. […] Again, extracts of MCF7 and H1299-tsp53^A135V cells served as positive controls for WTp53 DNA binding activity. […] Importantly, there was substantial overlap between the peptides that stabilized the WT conformation (Figure 2A) and those that increased specific DNA binding (Figure 2B), further reinforcing the conclusion that those peptides stabilize mutp53 in a functional state. This was not seen with the randomly selected peptides 1-6 (black bars).
# For these experiments, a commercial p53/DNA binding kit of “R&D” (Cat-DYC1355-5 Lot-1273366FA) was used, in accordance with manufacturer guide lines. Briefly, 96 well plates we coated with anti-p53 antibody overnight. Cell extracts containing p53 are reacted with an oligonucleotide that contains a p53 consensus binding site (provided in the kit), labeled with Biotin, in the presence or absence (NT) of test peptides. […]
# SK3 = assay: Crystal violet viability assay, SK3; format: cell-based, human; set-up: key: score 0- no effect-white; score 6- as or more effective than positive control- black; conditions: score 0-6 compared to positive control, 48 h
# Excerpt: We also performed a similar analysis on ES2 ovarian cancer cells, which express endogenous mp53^S241F, compared to ES2 cells in which p53 was stably knocked out using CRISPR/Cas9 (ES2 p53KO Figure S1F), to control for specificity for mutp53 (Figure 2D). In ES2 cells, too, some of the peptides caused a significant reduction in cell numbers, more prominent in the mutp53 expressing cells than in their p53KO counterparts. […] Overall, we performed this analysis on several different mutp53-expressing human cancer cell lines, and the results are summarized in Table S3. Based on this comprehensive picture, we reduced the number of most promising candidate lead peptides to 30. These peptides were then synthesized with an 8 arginine C-terminal tail for enhanced delivery across cell membranes (pCAPs 130-160); for clarity, peptides are referred to by their original number, with an R for poly arginine (see Table S3).
# Cells were cultured in 96 wells plates with 2500-4000 cells/well. Serial dilutions of different peptides were added and the plates incubated for additional 48 h at 37°C. Then medium was removed and cell viability was determined by staining the cells with crystal violet (0.05%) in methanol/PBS (1:5, v/v), for 10 min, followed by 3 washes with PBS. 10% acetic acid was added to each well for 10 min. OD was determined at 595 nm.
# [1] = test system: H1299 cells expressing mutp53^R175H; assay: Crystal violet viability assay, H1299; format: cell-based; conditions: 48 h; for Viability H1299: score 0-6 compared to positive control; for mutp53-specific effect on cell number, H1299: H1299 mutp53^R175H versus p53-null
# Protocol: Cell extracts were added to ELISA plates coated with the indicated antibodies to allow mutp53 to react with the peptides and antibodies. αp53-HRP Ab was used for assessment of p53 levels. Numbers represent ratio of absorbance between the PAb1620 and PAb240 samples. All reads were normalized to the control PAb241 reading of each extract. MCF7 (WTp53) and H1299-mutp53^A135V (tsp53) cells were used as positive controls for the WTp53 conformation (1620/240 ratio equals or exceeds 5:1). […] 96 well plates were coated with anti-p53 antibody, cell extracts containing p53 were reacted with oligonucleotides that contain a p53RE consensus binding site, labeled with biotin, in the presence or absence (NT) of test peptides. Streptavidin-HRP is used to quantify the amount of oligos in the well. TMB assay was performed to determine bound mutp53 levels (450nm). MCF7 and the H1299-mutp53^A135V(TS) cells serve as positive controls for WTp53. C.and D. - Bar graphs illustrating the effect of various selected peptides on mut-p53 dependent expression on cell viability. […] D, ES2 cells expressing endogenous mutp53 (blue bars) and ES2 cells knocked out for p53 by CRISPR construct (light blue bars). Cell lines were treated with selected peptides, Cis-platinum was used as positive control for cell death. 48 hours after treatment, cells were washed with PBS, and the remaining attached cells were stained with Crystal violet and washed 4 times with PBS. Stained cells were dissolved in 10% acetic acid and plates were taken for optical density measurement at 595nM.
# This simple assay measures the total number of cells, thus reflecting the combination of both cell death and growth arrest effects. […] After 48 hours of treatment cells were stained with crystal violet and OD at 595nm was determined.
# Values on the Y-axis reflect the number of cells in the treated wells, normalized to the non-treated samples (NT; red bars).
# [2] = test system: mutp53 in SK3 cell extract; assay: ELISA of mutp53 DNA binding (p53RE oligonucleotide), SK3; format: biochemical, human; conditions: score 0-6 compared to positive control
# Protocol: as §1
# For these experiments, a commercial p53/DNA binding kit of “R&D” (Cat-DYC1355-5 Lot-1273366FA) was used, in accordance with manufacturer guide lines. Briefly, 96 well plates we coated with anti-p53 antibody overnight. Cell extracts containing p53 are reacted with an oligonucleotide that contains a p53 consensus binding site (provided in the kit), labeled with Biotin, in the presence or absence (NT) of test peptides. WT p53 is expected to bind this DNA binding site as well as to the antibody coating the test wells of the plate. Excess p53 and oligos were washed away and streptavidin-HRP was used to quantify the amount of oligos in the well, which is proportional to the DNA bound by p53. TMB assay was performed to determine HRP (ES001-1L-K) levels (450nm).
Substance,DNA H1299 (mutp53^R175H),Viability SK3 (SK3),Viability H1299 [1],DNA SK3 [2],binding of mutp53 to the p53RE (mutp53^R175H),"mutp53-specific effect on cell number, H1299 [1]"
"LRCLLLLIGRVGRRRRRRRR [pCAP-24R, pCAP-24 with poly arginine tail]",3,2,4,3,–,–
"myr-RRKILFIRLMHNKH [pCAP-227, myristoylated peptide, similarity to GAS2]",3,6,5,3,–,–
"EVTFRHSVV [pCAP-1, randomly selected peptide used as inert comparison]",–,3,1,–,–,–
HHPWTHHQRWS [pCAP-20],–,3,–,–,–,–
YRRLLIGMMWRRRRRRRRR [pCAP-68],3,–,3,–,marked increase,–
"WNHHHSTPHPAHRRRRRR [pCAP-97R, pCAP-97 with poly arginine tail]",4,3,4,3,–,–
HANLHHT [pCAP-87],–,–,3,2,–,–
LRCLLLLIGRVG [pCAP-24],3,–,–,3,–,mutp53-specific effect
"IRGRIIRRRRRRRRR [pCAP-54R, pCAP-54 with poly arginine tail]",2,4,2,–,–,–
IRGRIIR [pCAP-54],2,4,–,–,marked increase,mutp53-specific effect
LHSKTLVL [pCAP-17],3,3,–,3,–,–
"IRILMFLIGCGRRRRRRRRR [pCAP-23R, pCAP-23 with poly arginine tail]",3,3,3,–,–,–
IRILMFLIGCGR [pCAP-23],1,3,3,–,–,–
SFILFIRRGRLG [pCAP-60],3,3,2,–,marked increase,mutp53-specific effect
"myr-PRVLPSPHTIHPSQYP [pCAP-229, myristoylated peptide, similarity to HIPK2]",4,3,4,3,–,–
myr-RRKHNKHRPEPDSDER [pCAP-221],2,5,2,3,–,–
YPTQGHLR [pCAP-36],2,–,2,2,–,mutp53-specific effect
myr-RRIRDPRILLLHFD [pCAP-325],4,3,5,3,–,–
"SFILFIRRGRLGRRRRRRRRR [pCAP-60R, pCAP-60 with poly arginine tail]",3,5,2,2,–,–
myr-RRLIVRILKLPNPPER [pCAP-242],4,5,5,4,–,–
WNHHHSTPHPAH [pCAP-97],4,–,3,2,marked increase,mutp53-specific effect
HSSHHHPVHSWN [pCAP-83],5,–,4,2,–,mutp53-specific effect

# — article PMC4914250, “Cancer therapeutic approach based on conformational stabilization of mutant p53 protein by small peptides” (Oncotarget, 2016)
